Laboratory results taken from US5279956A, “Activated protein C polypeptides and anti-peptide antibodies, diagnostic methods and systems for inhibiting activated protein C” (The Scripps Research Institute, priority 1991, dated 1994).
pIC50: −log10 of the molar value. No end group written: not given here.

Legend:
APC [1] = molecular target: T1, APC (Homo sapiens, UniProt P04070); experiment: Xa-1-stage coagulation assay of APC anticoagulant activity; type: biochemical
T1 construct: begins at amino acid residue position 158 and ends at 419; The light chain is 155 amino acid residues in length; tissue Factor IX concentrate from Immuno AG, Vienna; thrombin from Enzyme Research Laboratories
T1 sequence (P04070 212-461): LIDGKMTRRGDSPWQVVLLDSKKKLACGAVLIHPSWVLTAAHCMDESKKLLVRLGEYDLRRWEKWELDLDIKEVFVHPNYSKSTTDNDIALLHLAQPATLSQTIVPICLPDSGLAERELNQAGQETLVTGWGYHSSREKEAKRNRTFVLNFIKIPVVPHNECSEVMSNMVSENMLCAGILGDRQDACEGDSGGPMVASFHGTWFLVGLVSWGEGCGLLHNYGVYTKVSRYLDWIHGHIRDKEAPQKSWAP
T1 sequence (P04070 43-197): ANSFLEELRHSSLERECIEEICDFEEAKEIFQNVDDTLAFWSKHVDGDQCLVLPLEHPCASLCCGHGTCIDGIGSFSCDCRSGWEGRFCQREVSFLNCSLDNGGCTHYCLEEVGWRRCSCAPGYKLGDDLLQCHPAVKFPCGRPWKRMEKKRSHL
Description: For testing the inhibition of the synthetic peptides on APC activity described above, Xa-1-stage coagulation assays were also performed as described. See Seegers et al., Thrombosis Res., 13:233-243 (1978); Marlar et al., supra; and Walker et al., J. Biol. Chem. 265:1484-1489 (1990). […] The resulting admixtures were maintained for seven minutes at 37° C. Separate aliquots of peptides maintained under the same conditions in the absence of APC served as controls for the inhibitory effect of synthetic peptides on APC anticoagulant activity. After the maintenance period, 100 μl of NHP and 100 μl of 200 μg/ml of rabbit brain cephalin (Sigma) were admixed into each peptide admixture and maintained for 200 seconds at 37° C. to form pre-coagulation admixtures. In some experiments, Factor VIII deficient plasma (George King Bio-Medical, Inc.) was used in the place of NHP to determine the effect of Factor VIII on the assay system. Coagulation was then initiated by the admixture of 100 μl of 0.62 nM human activated Factor X (Xa) (Enzyme Research Laboratories, Southbend, Ind.) in TBS-BSA containing 30 mM CaCl2 prewarmed to 37° C. to each of the pre-coagulation admixtures.
The time for clot formation was measured by an Electra 700 Automatic Coagulation Timer (Medical Laboratory Automation, Inc., Mount Vernon, N.Y.). Each peptide's effect was determined in duplicate. The results of the inhibition of APC anticoagulant activity by synthetic peptides as measured in Xa-1-stage coagulation assays are described above and are presented as the mean values obtained with […].
Additional assays were performed to compare the specificity of the inhibitory effect of peptide-(390-404) on APC anticoagulant activity. Both APTT and Xa-1-stage assays were performed with peptide-(390-404) and with the same peptide synthesized in the reverse order, peptide-(404-390), at concentrations of the peptides ranging from 0 μM to 40 μM. In APTT assays performed as described above in the presence of NHP, APC was used at a concentration of 2.5 nM. […]

APC [2] = molecular target: T1, APC; experiment: Amidolytic activity of APC towards chromogenic substrate S-2366; type: biochemical; conditions: for effect on APC amidolytic activity towards S-2366: all concentrations up to 500 μM
Description: The effects of PC-derived inhibitory synthetic peptides on the amidolytic activity of APC were evaluated to determine if the peptides inhibited APC anticoagulant activity by blocking a region in or close to the active site of the enzyme involved in cleavage of a small substrate such as S-2366 (Kabi-Vitrum) or involved in the site of interaction with the recombinant mutant (Arg^358)α1 -antitrypsin (α1 -AT) (Transgene, Strasbourg, France), the latter of which is described in Example 5a4) below. The assay was performed as described by Marlar et al., supra; and Suzuki et al., supra.
The amidolytic activity of APC toward the peptide substrate S-2366 was measured in the presence of various PC synthetic peptides prepared in Example 1. For the assay, 100 μl of 15 nM APC, prepared in Example 2c2), was admixed with separate aliquots of peptide-(390-404) ranging in concentration from 0.0 to 750 μM prepared in TBS-BSA at pH 7.4 containing 0.02% NaN3 and 2 mM CaCl2 to form APC-peptide admixtures, respectively. After maintenance of the admixtures for 30 minutes at 37° C., 50 μl of 2.4 mM S-2366 in the same buffer was admixed to initiate the amidolytic reaction. The hydrolysis of the substrate was monitored by the change in absorbance at 405 nm at 37° C. over time using an EL312 Microplate Bio-Kinetics Reader (BIO-TEK Instruments, Inc. Vt.).
The amidolytic activity of APC toward the peptide substrate S-2366 was measured in the presence of anti-(390-404) antibody. For the assay, 100 μl of 15 nM APC, prepared in Example 2c2), were admixed with separate aliquots of anti-(390-404) antibody ranging in concentration from 0.0 to 500 nM prepared in TBS-BSA at pH 7.4 containing 0.02% NaN3 and 2 mM CaCl2 to form APC-anti-(390-404) antibody immunoreaction admixtures, respectively. After maintenance of the admixtures for 30 minutes at 37° C. to allow formation of immunoreaction products, 50 μl of 2.4 mM S-2366 in the same buffer was admixed to initiate the amidolytic reaction. The hydrolysis of the substrate was monitored by the change in absorbance at 405 nm over time using an EL312 Microplate Bio-Kinetics Reader (BIO-TEK Instruments, Inc. Vt.).

| Substance | effect on APC in Xa1-stage assay (APC [1]; up to 100 μM) | APC amidolytic activity towards S-2366, A405 /5 min (APC [2]; APC + 250 μM peptide) | effect on APC amidolytic activity towards S-2366 (APC [2]) | APC amidolytic activity towards S-2366, A405 /5 min (APC [2]; APC + 500 μM peptide) | pIC50 (APC [1]) | IC90 (APC [1]) |
| --- | --- | --- | --- | --- | --- | --- |
| KRNRTFVLNFIKIPV-NH2 [peptide-(311-325), KRNRTFVLNFIKIPV] | no effect | 0.342 A405 /5 min | did not significantly alter | – | – | – |
| SGLLHNYGVYTKVSR-NH2 [peptide-(384-398), -SGLLHNYGVYTKVSR] | – | – | did not significantly alter | 0.378 A405 /5 min | – | – |
| YGVYTKVSRYLDWIH-NH2 [peptide-(390-404), YGVYTKVSRYLDWIH] | – | – | – | – | 5.30 | 40 µM |
